# Measurements reported in patent US8236843B2, “Anti inflammatory compounds” (Elder Pharmaceuticals Ltd., priority 2008, dated 2012).
# Like-named read-outs stand apart in the source and are kept apart here.
# Tests used:
# Wistar rats [1] = test: Carrageenan-induced rat paw edema model; type: in vivo; conditions: 10 mg/kg oral, 2 h before carrageenan; for Anti-inflammatory activity in Wistar rats (% inhibition) 3 h: paw edema at 3 h; for Anti-inflammatory activity in Wistar rats (% inhibition) 4 h: paw edema at 4 h
# Experimental: (§1) Male Wistar rats weighing 175-200 g and Swiss albino mice weighing 20-25 g were housed in the Animal Care Facility. The animals were fed standard laboratory feed and tap water. Unless otherwise noted, in all experiments described in the following text, the sample size in each group was at least 6.
# In Vivo Screening Method, Carrageenan-Induced Rat Paw Edema Model
# Male Wistar rats (120-140 gm) were fasted for 16 hour before the experiment. Anti-inflammatory activity was evaluated by carrageenan-induced paw edema test in rats. Diclofenac sodium, tolfenamic acid and celecoxib at 10 mg/kg were administered as standard drugs for comparison. The test molecules were administered at dose level 10 mg/kg. Molecules were suspended in 0.25% carboxymethylcellulose (CMC) and administered orally in a volume of 10 ml/kg, 2 hour before carrageenan injection. Paw edema was induced in rats by intradermal injection of 50 μl, of 1% λ-carrageenan in saline into the planer surface of right hind paw. The volume of the injected paw was measured hourly thereafter for 4 hours using plethysmometer (Ugo-Basile, Italy). Paw edema was compared with vehicle controlled group and percentage inhibition was calculated.
# Swiss albino mice = test: Analgesic activity against acetic acid induced writhing; type: in vivo; conditions: 10 mg/kg p.o., 1 h before i.p. 0.6% acetic acid; writhes counted for 10 min
# From the text: as §1
# Analgesic Activity Against Acetic Acid Induced Writhing
# Pain was induced by injection of irritant i.e. acetic acid into the peritoneal cavity of mice. […] Vehicle (1% w/v carboxymethylcellulose (CMC), 0.5 ml per orally (p.o.)) was given to control group (n=6 per group) of mice. […]. One hour following the administration of test molecule, 0.1 ml/100 gm of 0.6% v/v acetic acid solution was injected intraperitoneally to each of the test mice. The number of writhes that occurred within the next 10 min following acetic acid administration was counted and recorded. Results were expressed as percentage inhibition of writhing.
# Wistar rats [2] = conditions: for Gastric score: 100 mg/kg oral, fasted rats, 5 hours, sum of lesion lengths, mean SEM, 6 rats; for Histopathology study (ulcerogenecity): Dose 100 mg/kg oral, rat stomach
# Experimental: (§2) Assessment of Gastric Ulcerogenic Effects in the Rat on Acute Administration of Drugs
# (§3) Groups of 6 male Wistar rats weighing 120-140 g were fasted for 24 h with free access to water. […] The lengths (in millimeters) of all hemorrhagic lesions were measured and the “gastric damage score” was calculated for each stomach by summing these values. After scoring the damage, a sample of the corpus region of each stomach was fixed in neutral buffered formalin for subsequent histologic assessment.
# Wistar rats [3] = conditions: rat, in vivo, po, 100 mg/kg
# Experimental: as §2, §3
# [4] = Acute oral toxicity studies (OECD AOT No. 425); conditions: both sexes, mouse, in vivo, albino mice, observed 48 hrs
# Experimental: Acute Oral Toxicity Studies
# The mice were observed continuously for 2 h for behavioral, neurological and autonomic profiles for any lethality or death for next 48 hrs. Based on the results obtained from this study, lethal dose (LD50) was calculated.
melting point [°C],SMILES,Anti-inflammatory activity in Wistar rats (% inhibition) 3 h (Wistar rats [1]) [%],Anti-inflammatory activity in Wistar rats (% inhibition) 4 h (Wistar rats [1]) [%],Analgesic activity in Swiss albino mice (% inhibition) (Swiss albino mice) [%],also measured
202 to 204,O=[N+]([O-])c1cn(Cc2ccc(-c3ccccc3-c3nnn[nH]3)cc2)cn1,,,,
158 to 162,Cc1nc([N+](=O)[O-])c(Br)n1Cc1ccc(-c2ccccc2C#N)cc1,,,,
222 to 225,Cc1nc([N+](=O)[O-])c(Br)n1Cc1ccc(-c2ccccc2C(=O)O)cc1,,,,
,Cc1ncc([N+](=O)[O-])n1Cc1ccc(-c2ccccc2C#N)cc1 [4′-(2-Methyl-5-nitro-imidazol-1-ylmethyl)-biphenyl-2-carbonitrile],19.52,24.25,84.25,
,N#Cc1ccccc1-c1ccc(Cn2cnc([N+](=O)[O-])c2)cc1 [4′-(4-Nitro-imidazol-1-ylmethyl)-biphenyl-2-carbonitrile],35.82,44.28,86.61,Gastric score (Wistar rats [2]): 1.83 ± 0.54; Histopathology study (ulcerogenecity) (Wistar rats [2]): No sign of ulceration
,O=C(O)c1ccccc1-c1ccc(Cn2cnc([N+](=O)[O-])c2)cc1 [4′-(4-Nitro-imidazol-1-ylmethyl)-biphenyl-2-carboxylic acid],38.31,44.63,84.13,Gastric score (Wistar rats [2]): 1.6 ± 0.50; Histopathology study (ulcerogenecity) (Wistar rats [2]): No sign of ulceration
,"Cc1ccc(-c2cc(C(F)(F)F)nn2-c2ccc(S(N)(=O)=O)cc2)cc1 [Celecoxib, reference compound]",45.24,45.32,77.0,Histopathology study (ulcerogenecity) (Wistar rats [3]): No sign of ulceration; LD50 at 48 h [4]: < 2000 mg/kg
,"O=C(O)Cc1ccccc1Nc1c(Cl)cccc1Cl [Diclofenac sodium, reference compound]",35.05,39.99,89.51,
154 to 155,"NS(=O)(=O)c1ccc(Nc2ccccc2-c2ccc(Cn3cc([N+](=O)[O-])nc3CO)cc2)cc1 [Formula (I) Sr. No. 7, 4-[4′-(2-Hydroxymethyl-4-nitro-imidazol-1-ylmethyl)-biphenyl-2-ylamino]-benzenesulfonamide]",,,,
,Cc1c(Cl)cccc1Nc1ccccc1C(=O)O [Tolfenamic acid],,,,Histopathology study (ulcerogenecity) (Wistar rats [3]): Shows sign of; LD50 at 48 h [4]: < 550 mg/kg
